From patent US6921775B2, “Methods for modulating brain damage” (Children's Medical Center Corporation, priority 2001, dated 2005) come the findings set out here.

Data set [1] has as its system P7 rat pups. Nature of the data set: Hypoxia/ischemia (unilateral carotid ligation followed by hypoxia, 6% O2 for one hour) selective white matter injury model. It counts as in vivo. The source says:
The methods used in this example are described in Follett et al. (2000) J. Neurosci. 20:9235-9241, incorporated by reference herein.
Because the white matter of premature infants at high risk for hypoxic/ischemic white matter injury is also populated with immature OLs (Kinney and Back, 1998), this age was chosen to deliver the hypoxic/ischemic insult. […] Injury was limited to the white matter without evidence of injury to cortical neurons. […] Ipsilateral injury included the loss of MBP expression in the OL processes extending into the cortex and decreased thickness of the periventricular white matter and external capsule in four of nine rats.
P7 rat pups underwent unilateral carotid ligation followed by hypoxia (6% O2 for one hour). Following hypoxia, littermates were treated with either topiramate (30 mg/kg, i.p., q12 h, 4 doses, n=12) or vehicle (n=12). 48 hours after hypoxia/ischemia, pups were evaluated with in situ end labeling (ISEL) for the presence of cell death in white matter. Briefly, coronal sections were labeled for the presence of single-stranded DNA fragments as a sensitive indicator of cell death. ISEL positive cells in white matter ipsilateral to the ligation in each of three coronal sections (at the level of the anterior hippocampus, mid-dorsal hippocampus, and posterior dorsal hippocampus) were counted and a mean was taken for each rat.
96 hours post-ischemia/hypoxia, pups were evaluated with ICC for loss of MBP expression ipsilateral to the ligation as compared to the contralateral side. Coronal sections were evaluated by immunocytochemistry with a monoclonal against MBP, and detected with fluorescent secondary antibody. Three sections were evaluated for each rat: the anterior hippocampus, the mid-dorsal hippocampus, and the posterior dorsal hippocampus. Lesion severity was assigned a value on a scale from 0 to 3 as follows: 0 if ipsilateral and colateral hemispheres were similar; 1 if ipsilateral loss was limited to cortical processes; 2, if loss of staining included thinning of the periventricular white matter; and 3 if white matter tracts included a full thickness loss of staining in the capsule. A mean severity score was obtained for immature and mature OL markers in each rat.
Litters of male Long Evans rat pups (Charles River Laboratories, Wilmington, Mass.) were raised with dams in a temperature-controlled environment with 12 hour light-dark cycles. Pups underwent carotid ligation and hypoxia at post-natal-day (P)7. They were recovered on a thermal blanket at 33-34° C. (baseline temperature for P7 rats) and returned to their dam for 48-96 hours prior to sacrifice. Treated pups were given intra-peritoneal (i.p.) injections of 0.1 cc solutions of topiramate, NBQX or vehicle every 12 hours for 48 hours at P7 and P8 for treatment, control and normal development studies.
Hypoxic/ischemic injury was generated in rats by unilateral carotid ligation followed by hypoxia (6% for 1 hour). […] The methods used in this example are described in Follett et al (2000) J. Neurosci. 20:9235-9241, incorporated by reference herein.
Briefly, rats were anesthetized with ether and the proximal internal carotid artery was isolated from the sympathetic chain and ligated. Animals requiring prolonged sedation due to technical issues were removed from the study. The animals were recovered one hour, then placed in a sealed chamber infused with nitrogen to a level of 6% O2, with body temperature maintained at 33-34° C. throughout. […] Pups were allowed a 1-2 hour period of recovery after hypoxia then returned to their dam. Pups were randomized into treatment and control groups by weight to insure no size variation existed between the subjects and controls to start. Following hypoxia animals in the treatment group were given i.p. injections of topirmate (10, 30 or 50 mg/kg in 0.1 cc PBS) or equivalent volume of saline repeat treatment every 12 hours for 48 hours. […]

Data set [2] has as its system oligodendrocyte precursor cells. In words: 45Ca2+ uptake in oligodendrocyte precursor cells. It counts as cell-based, rat. The settings on record: NBQX 100 μM, topiramate 30 μM, uptake after 10 minutes; for OGD-induced Ca2+ accumulation (45Ca2+ uptake): OGD for 2 hr; for kainate-evoked Ca2+ entry (45Ca2+ uptake): kainate 300 μM. The method, then:
Primary oligodendrocyte precursor cells were isolated from mixed glial cultures of the forebrains of newborn Sprague-Dawley rats using a selective detachment procedure as described in detail elsewhere (McCarthy and de Vellis, 1980; Back et al., 1998), and further purified by differential adhesion (Back et al., 1998). Precursor cells were maintained in a chemically-defined medium (CDM) supplemented with recombinant human platelet derived growth factor-AA (PDGF, 10 ng/ml) and basic fibroblast growth factor (bFGF, 10 ng/ml). The CDM was Dulbecco Modified Eagle's Medium (DMEM) containing D-glucose (25 mM), L-glutamine (4 mM), sodium pyruvate (1 mM), human apo-transferrin (50 μg/ml), bovine pancreatic insulin (5 μg/ml), sodium selenium (30 nM), hydrocortisone (10 nM), D-biotin (10 nM), and bovine serum albumin (BSA, 1 mg/ml). All chemicals were from Sigma. Precursor cells were maintained in the presence of growth factors (PDGF+bFGF) by refeeding with fresh medium every 48 hr for 7 days, to promote cell proliferation and prevent differentiation (Bogler et al., 1990). Experiments were performed with cultures maintained in CDM without the supplemental growth factors. These cultures were routinely characterized by immunochemical detection of cell-specific markers as described before (Back et al., 1998). Cultures at the beginning of experiments usually consisted of approximately 90% A2B5^+ oligodendrocyte precursors and less than 5% glial fibrillary acidic protein (GFAP)-positive astrocytes. Cells were plated on poly-DL-ornithine-coated 24-well plates for cell viability assays and on coated glass coverslips for immunocytochemistry, proliferation studies, and lineage analysis. To assay Ca^2+ influx, cultures were incubated with ^45CaCl2 (8 μCi/ml) at room temperature for 10 min, then washed with Hank's balanced salts-solution (HBSS) and lysed with 1% Triton-X 100 in HBSS. Radioactivity in the whole lysate was counted by liquid scintillation. To gain further insight into the mechanisms of the protective effect of topiramate and NBQX, kainate- or OGD-evoked calcium accumulation in oligodendrocyte precursor cells was investigated. Cultures were either not treated or given NBQX (100 μM) or topiramate (30 μM), together with ^45CaCl2 (8 μCi/ml), before adding kainate (300 μM) or after exposure to OGD for 2 hr. ^45Ca^2+ uptake was measured after 10 minutes.

The mark [3] stands for this setting: P7 rats, topiramate 30 mg/kg i.p. q12 h 4 doses, 96 hours.

Regarding `CC1(C)O[C@@H]2[C@@H](CO[C@@]3(COS(N)(=O)=O)OC(C)(C)O[C@@H]23)O1` [topiramate], the “protective effect at the lower dose (MBP injury)” value in data set [1] (Example 3, 10 mg/kg per dose (40 mg/kg divided over 48 hours)) is listed as “less efficacy”. Moreover, in data set [1] (Example 3, 30 mg/kg topiramate every 12 hours for 48 hours, 96 hours after hypoxia, vs vehicle p<0.01), the “lesion severity, blinded semi-quantitative analysis of MBP expression” value is given as “significant attenuation of lesion severity”. Also, the “effect at the higher dose (MBP injury)” value in data set [1] (Example 3, 50 mg/kg per dose (200 mg/kg divided over 48 hours)) is reported as “question of possible toxicity”. For the same molecule, in data set [1] (Example 3, P7 rats, monitored at each stage), the “body temperature by rectal probe, treatment vs control groups” value is “did not differ between treatment and control groups”. Moreover, the “dose with maximal protective effect (MBP injury)” value in data set [1] (Example 3, partial dose response 10, 30, 50 mg/kg every 12 hours for 48 hours) is recorded as 30 mg/kg/dose. Besides, the “pups with less than 20 ISEL positive cells per section in subcortical white matter ipsilateral to the ligation” value in data set [1] (P7 rats, topiramate 30 mg/kg i.p. q12 h 4 doses, 48 hours after hypoxia/ischemia) is on record as “Five out of six”. The “white matter cell death (ISEL positive cells)” value in data set [1] (P7 rats, topiramate 30 mg/kg i.p. q12 h 4 doses, 48 hours after hypoxia/ischemia, p<0.03) is “significant decreases in white matter cell death”. In data set [1] (setting [3]), the “pups with no appreciable loss of MBP expression ipsilateral to the carotid ligation” value is given as “two out of five” and the “pups with severe injury (MBP loss)” value is “None of the topiramate treated pups exhibited severe injury”. The “loss of MBP expression ipsilateral to the ligation” value in data set [1] (P7 rats, topiramate 30 mg/kg i.p. q12 h 4 doses, 96 hours post-ischemia/hypoxia, p=0.04) was “significant attenuation of MBP loss”. Further, in data set [2], the “OGD-induced Ca2+ accumulation (45Ca2+ uptake)” value is “fully prevented” and the “kainate-evoked Ca2+ entry (45Ca2+ uptake)” value is recorded as “partially prevented”.

`NS(=O)(=O)c1cccc2c1c([N+](=O)[O-])cc1nc(O)c(O)nc12` [NBQX, 2,3-Dioxo-6-nitro-1,2,3,4-tetrahydrobenzo[f]quinoxaline-7-sulphonamide]: the “white matter injury, semiquantitative lesion severity by MBP expression” value in data set [1] (P7 rats, NBQX post-treatment at termination of hypoxia, 96 hours after insult, vs vehicle-treated controls, p<0.001) is recorded as “significant attenuation of white matter injury”. Further, the “white matter injury, semiquantitative lesion severity by O1 expression” value in data set [1] (P7 rats, NBQX post-treatment at termination of hypoxia, 96 hours after insult, vs vehicle-treated controls, p<0.005) is listed as “significant attenuation of white matter injury”. Besides, the “treated pups with no detectable injury” value in data set [1] (P7 rats, NBQX post-treatment, 96 hours after insult) is recorded as “three of seven”. Moreover, the “rectal temperature, treated vs untreated groups” value in data set [1] (P7 rats, NBQX treatment initiated after hypoxia) is “No difference in rectal temperatures”. Further, in data set [2], the “OGD-induced Ca2+ accumulation (45Ca2+ uptake)” value is reported as “fully prevented” and the “kainate-evoked Ca2+ entry (45Ca2+ uptake)” value is on record as “completely blocked”.
